Source: ChEMBL document CHEMBL4808180, “Identification of 2,2-Dimethylbutanoic Acid (HST5040), a Clinical Development Candidate for the Treatment of Propionic Acidemia and Methylmalonic Acidemia” (J Med Chem, 2021)

How the values were obtained:
[1] = Cmax in CD1 mouse at 30 mg/kg, po; type: ADME, organism-based; set-up: route oral, dose 30 mg/kg; conditions: in vivo
[2] = Reduction of acetyl-CoA in human hepatocytes derived from propionic acidemia patient at 30 uM pretreated for 30 mins followed by 13C-isoleucine addition and measured after 1 hr by MS/MS analysis relative to control; type: functional, Hepatocyte; set-up: scale not given: the % may be the effect or the level left; conditions: time 90 min, 1.5 h
[3] = Apparent permeability across apical to basal side in human MDCK2-MDR1; type: ADME, Canis lupus familiaris; conditions: dog, MDCK-MDR1
[4] = Drug metabolism in rat hepatocytes assessed as formation of 2,2-dimethylbutanoic acid-CoA incubated for 1 hrs by MS/MS analysis; type: ADME, cell-based; conditions: Hepatocyte
[5] = Tmax in Sprague-Dawley rat at 200 mg/kg, po; type: ADME, organism-based; conditions: in vivo
[6] = Tmax in CD1 mouse at 30 mg/kg, iv; type: ADME, organism-based; conditions: in vivo
[7] = Drug excretion in Gottingen minipig urine at 10 mg/kg, po using radiolabeled compound by quantitative whole-body autoradiography; type: ADME, organism-based, Sus scrofa domesticus; conditions: pig, in vivo, 96 h
Hepatocyte [8] = experiment: Cytotoxicity against human hepatocytes assessed as reduction in cell viability using radiolabeled compound; type: cell-based
[9] = Reduction of propionyl carnitine in human hepatocytes derived from methylmalonic acidemia patient at 30 uM pretreated for 30 mins followed by 13C-isoleucine addition and measured after 1 hr by MS/MS analysis relative to control; type: functional, Hepatocyte; set-up: scale not given: the % may be the effect or the level left; conditions: time 90 min, 1.5 h
[10] = Cmax in CD1 mouse at 300 mg/kg, po; type: ADME, organism-based; set-up: route oral, dose 300 mg/kg; conditions: in vivo
[11] = AUC (0 to infinity) in Gottingen minipig at 10 mg/kg, po using radiolabeled compound by quantitative whole-body autoradiography; type: ADME, organism-based, Sus scrofa domesticus; set-up: time infinity, route oral, dose 10 mg/kg; conditions: pig, in vivo
[12] = Drug metabolism in Sprague-Dawley rat feces assessed as HST5040-glycine metabolite formation at 10 mg/kg administered as single dose by LC/MS analysis; type: ADME, organism-based; conditions: in vivo
Hepatocyte [13] = experiment: Cytotoxicity against minipig hepatocytes assessed as reduction in cell viability using radiolabeled compound; type: cell-based, Sus scrofa domesticus; conditions: pig
[14] = Drug metabolism in human hepatocytes assessed as formation of 2,2-dimethylbutanoic acid-CoA incubated for 1 hrs by MS/MS analysis; type: ADME, cell-based; conditions: Hepatocyte
[15] = Drug metabolism in rat hepatocytes assessed as beta-oxidation by measuring phase1 metabolite formation at 50 uM measured after 4 hrs; type: ADME, cell-based, Hepatocyte
[16] = Half life in Sprague-Dawley rat at 200 mg/kg, po; type: ADME, organism-based; conditions: in vivo
[17] = Half life in Sprague-Dawley rat blood at 10 mg/kg, po by quantitative whole-body autoradiography; type: ADME, organism-based; conditions: in vivo
[18] = Reduction of propionyl carnitine in human hepatocytes derived from methylmalonic acidemia patient pretreated for 30 mins followed by 13C-isoleucine addition and measured after 1 hr by MS/MS analysis; type: functional, cell-based; conditions: hepatocyte
[19] = AUC (0 to infinity) in Sprague-Dawley rat at 200 mg/kg, po; type: ADME, organism-based; set-up: route oral, time infinity, dose 200 mg/kg; conditions: in vivo
[20] = AUC (0 to infinity) in CD1 mouse at 30 mg/kg, po; type: ADME, organism-based; set-up: time infinity, route oral, dose 30 mg/kg; conditions: in vivo
[21] = Reduction of CoASH in human hepatocytes at 30 uM pretreated for 30 mins followed by 13C-isoleucine addition and measured after 1 hr by MS/MS analysis relative to control; type: functional, Hepatocyte; set-up: scale not given: the % may be the effect or the level left; conditions: time 90 min, 1.5 h
[22] = Reduction of acetyl-CoA in human hepatocytes pretreated for 30 mins followed by 13C-isoleucine addition and measured after 1 hr by MS/MS analysis; type: functional, Hepatocyte; set-up: scale not given: the % may be the effect or the level left; conditions: dose 30 µM, 0.5 h
[23] = Clearance in CD1 mouse at 30 mg/kg, iv; type: ADME, organism-based; conditions: in vivo
[24] = biological target: T1, Multidrug and toxin extrusion protein 2 (Homo sapiens, UniProt Q86VL8); experiment: Inhibition of human MATE2K assessed as reduction in MATE2K-mediated metformin transport at 14900 uM relative to control
T1 sequence (Q86VL8 whole entry): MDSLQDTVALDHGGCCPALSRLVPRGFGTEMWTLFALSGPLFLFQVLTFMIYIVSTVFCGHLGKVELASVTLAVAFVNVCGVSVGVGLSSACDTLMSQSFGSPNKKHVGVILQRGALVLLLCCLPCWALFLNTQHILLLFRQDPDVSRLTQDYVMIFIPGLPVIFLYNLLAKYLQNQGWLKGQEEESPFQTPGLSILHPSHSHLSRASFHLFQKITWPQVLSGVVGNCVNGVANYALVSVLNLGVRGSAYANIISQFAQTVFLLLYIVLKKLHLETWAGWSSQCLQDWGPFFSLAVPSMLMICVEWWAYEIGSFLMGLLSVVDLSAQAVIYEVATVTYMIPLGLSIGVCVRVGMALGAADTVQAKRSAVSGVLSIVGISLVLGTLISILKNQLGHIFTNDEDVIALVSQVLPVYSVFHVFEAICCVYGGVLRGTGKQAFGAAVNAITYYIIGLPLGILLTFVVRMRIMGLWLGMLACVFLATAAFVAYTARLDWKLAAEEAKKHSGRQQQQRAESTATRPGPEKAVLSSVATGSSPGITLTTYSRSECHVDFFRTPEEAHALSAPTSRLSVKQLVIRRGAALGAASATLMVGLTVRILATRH

[25] = AUC (0 to infinity) in CD1 mouse at 300 mg/kg, iv; type: ADME, organism-based; set-up: route intravenous, time infinity, dose 300 mg/kg; conditions: in vivo
[26] = Protein binding in Gottingen minipig plasma at 40 uM incubated for 4 hrs by equilibrium dialysis; type: ADME, cell-free, Sus scrofa domesticus; conditions: pig, read-out: PPB (converted)
[27] = Protein binding in human plasma at 40 uM incubated for 4 hrs by equilibrium dialysis; type: ADME, cell-free
[28] = Stability in minipig hepatocytes assessed as unchanged compound at 50 uM measured after 4 hrs; type: ADME, cell-based, Sus scrofa domesticus, Hepatocyte; conditions: pig, read-out: Stabilty
[29] = Half life in Sprague-Dawley rat at 10 mg/kg, iv; type: ADME, organism-based; conditions: in vivo
[30] = Drug metabolism in Gottingen minipig plasma assessed as HST5040-carnitine metabolite formation at 10 mg/kg administered as single dose by LC/MS analysis; type: ADME, organism-based, Sus scrofa domesticus; conditions: pig, in vivo
[31] = Drug metabolism in Sprague-Dawley rat plasma assessed as HST5040-carnitine metabolite formation at 10 mg/kg administered as single dose by LC/MS analysis; type: ADME, organism-based; conditions: in vivo
[32] = Cmax in Sprague-Dawley rat at 10 mg/kg, po; type: ADME, organism-based; set-up: route oral, dose 10 mg/kg; conditions: in vivo
[33] = Apparent permeability of the compound across apical to basal side in human Caco-2 cells; type: ADME, cell-based

CCC(C)(C)C(=O)O [DIMEBUTIC ACID]
Cmax [1]: 33700 ng/mL | Activity [2]: 54% | Papp A→B [3]: > 20 ×10⁻⁶ cm/s | EC50 [4]: 202 µM | Tmax [5]: 0.417 h | Tmax [6]: 7.5 min | Drug excretion [7]: 77.4% | Activity (Hepatocyte [8]): Non-Toxic | Activity [9]: -65.9% | Cmax [10]: 465000 ng/mL | AUC [11]: 91.3 µg·h/mL | Drug metabolism [12]: Metabolite_Detected | Activity (Hepatocyte [13]): Non-Toxic | EC50 [14]: 5.9 µM | Drug metabolism [15]: Metabolite_Notdetected | half-life [16]: 2.73 h | t1/2 [17]: 2.5 h | EC50 [18]: 1.4 µM | AUC(0-inf) [19]: 244 µg·h/mL | AUC(0-inf) [20]: 37.5 µg·h/mL | Activity [21]: -35.2% | Activity [22]: 20% | clearance [23]: 7.28 mL/min/kg | inhibition (INH) [24]: Not Active | AUC(0-inf) [25]: 1250 µg·h/mL | fraction unbound at 4 h, 40 µM [26]: 0.55 | PPB [27]: 0% | remaining at 4 h, 50 µM [28]: 86% | half-life [29]: 3.93 h | Drug metabolism [30]: Metabolite_Detected | Drug metabolism [31]: Metabolite_Detected | Cmax [32]: 4270 ng/mL | Papp A→B [33]: > 20 ×10⁻⁶ cm/s
